According to patent US8410097B2 (priority 2005, dated 2013):
Like-named read-outs stand apart in the source and are kept apart here.

Legend:
CB1 cannabinoid receptor = target: T1, CB1 cannabinoid receptor (Rattus norvegicus, UniProt P20272); experiment: biochemical; type: binding; conditions: rat forebrain membranes, 0.8 nM [3H] CP-55,940
T1 construct: membranes were prepared from rat forebrain membranes; from tissue; host or cells: rat forebrain membranes
Method: Some of the inventive analogs were tested for CB2 receptor binding affinity and for CB1 receptor affinity (to determine selectivity). […] The lower the Ki value the higher the binding affinity. […]
Membranes, previously frozen at −80° C., were thawed on ice. To the stirred suspension was added three volumes of TME (25 mM Tris-HCl buffer, 5 mM MgCl2 and 1 mM EDTA) at a pH 7.4. The suspension was incubated at 4° C. for 30 min. At the end of the incubation, the membranes were pelleted and washed three times with TME.
(§1) The treated membranes were subsequently used in the binding assay described below. Approximately 30 μg of membranes were incubated in silanized 96-well microtiter plate with TME containing 0.1% essentially fatty acid-free bovine serum albumin (BSA), 0.8 nM [^3H] […] Radioactivity was detected using MicroScint 20 scintillation cocktail added directly to the dried filterplates, and the filterplates were counted using a Packard Instruments Top-Count. […] Data collected from three independent experiments performed with duplicate determinations was normalized between 100% and 0% specific binding for [^3H] […] The normalized data was analyzed using a 4-parameter nonlinear logistic equation to yield IC50 values.

CB2 cannabinoid receptor = CB2 cannabinoid receptor (Mus musculus, UniProt P47936); experiment: biochemical; type: binding; conditions: mouse spleen membranes, [3H] CP-55,940
Sequence of CB2 cannabinoid receptor (P47936 whole entry): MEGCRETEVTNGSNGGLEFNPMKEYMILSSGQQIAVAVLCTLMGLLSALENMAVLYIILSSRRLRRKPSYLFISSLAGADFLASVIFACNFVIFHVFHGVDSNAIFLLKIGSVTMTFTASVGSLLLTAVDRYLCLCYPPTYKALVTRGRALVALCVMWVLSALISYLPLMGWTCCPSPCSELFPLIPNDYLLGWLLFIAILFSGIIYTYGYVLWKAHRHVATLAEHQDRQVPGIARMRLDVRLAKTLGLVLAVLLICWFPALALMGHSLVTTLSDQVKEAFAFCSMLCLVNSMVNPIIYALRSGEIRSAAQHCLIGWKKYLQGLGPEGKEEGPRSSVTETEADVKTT
Method: Some of the inventive analogs were tested for CB2 receptor binding affinity and for CB1 receptor affinity (to determine selectivity). […] The lower the Ki value the higher the binding affinity.
as §1
Silanized centrifuge tubes were used throughout to minimize receptor loss due to adsorption. The CB2 binding assay was conducted in the same manner as for the CB1 binding assay. The binding affinities (Ki) were also expressed in nanomoles (nM).

T1 sequence (P20272 whole entry): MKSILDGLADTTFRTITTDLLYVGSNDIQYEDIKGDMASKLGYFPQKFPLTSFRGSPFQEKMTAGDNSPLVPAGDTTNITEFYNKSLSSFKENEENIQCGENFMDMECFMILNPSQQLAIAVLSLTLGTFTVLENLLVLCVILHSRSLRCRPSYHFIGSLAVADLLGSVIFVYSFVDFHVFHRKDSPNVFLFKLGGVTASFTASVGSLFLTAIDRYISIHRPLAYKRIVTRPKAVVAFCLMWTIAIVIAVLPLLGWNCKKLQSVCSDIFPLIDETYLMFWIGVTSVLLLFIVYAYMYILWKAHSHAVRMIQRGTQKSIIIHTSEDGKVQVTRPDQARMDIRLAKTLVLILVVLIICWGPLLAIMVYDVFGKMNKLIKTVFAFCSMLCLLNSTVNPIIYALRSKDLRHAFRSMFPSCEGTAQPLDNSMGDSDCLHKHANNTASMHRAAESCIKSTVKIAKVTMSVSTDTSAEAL

SMILES	Ki (CB1 cannabinoid receptor; CB1 Ki, Table 6)	Ki (CB2 cannabinoid receptor; Table 6, read-out: CB2 Ki)	also measured
Cc1cc(Br)ccc1-n1c(-c2ccc(Cl)cc2Cl)nc(C(=O)NN2CCCCC2)c1C [Compound 1-1]	29.8 nM	808 nM	–
Cc1c(C(=O)NN2CCCCC2)nc(-c2ccc(Cl)cc2Cl)n1-c1ccc(Br)cc1 [Compound 1-2]	11.5 nM	–	Ki (CB2 cannabinoid receptor; CB2 Ki, Table 6): 462 nM
Cc1cc(Br)ccc1-n1c(-c2ccc(Cl)cc2Cl)nc(C(=O)NN2CCCCC2)c1CO [Compound 1-3]	54.7 nM	803 nM	–
O=C(NN1CCCCC1)c1nc(-c2ccc(Cl)cc2Cl)n(-c2ccc(Br)cc2)c1CO [Compound 1-4]	10.8 nM	–	Ki (CB2 cannabinoid receptor; CB2 Ki, Table 6): 319 nM
CN(C(=O)c1nc(-c2ccc(Cl)cc2Cl)n(-c2ccc(Br)cc2)c1CO)C1CCCCC1 [Compound 1-5]	28.8 nM	3780 nM	–
Cc1c(C(=O)NN2CCCCC2)nc(-c2ccc(Cl)cc2Cl)n1-c1ccc(I)cc1 [Compound 1-6]	2.7 nM	4310 nM	–
O=C(NN1CCCCC1)c1nc(-c2ccc(Cl)cc2Cl)n(-c2ccc(I)cc2)c1CO [Compound 1-7]	1.5 nM	1650 nM	–
Cc1c(C(=O)NN2CCCCC2)nc(-c2ccc(Cl)cc2Cl)n1-c1ccc(C#N)cc1 [Compound 1-8]	57 nM	7220 nM	–
N#Cc1ccc(-n2c(-c3ccc(Cl)cc3Cl)nc(C(=O)NN3CCCCC3)c2CO)cc1 [Compound 1-9]	51 nM	5460 nM	–
O=C(NC1CCCCC1)c1nc(-c2ccc(Cl)cc2Cl)n(-c2ccc(Br)cc2)c1CO [Compound 1-10]	4.6 nM	3030 nM	–
CN(C(=O)c1nc(-c2ccc(Cl)cc2Cl)n(-c2ccc(I)cc2)c1CO)C1CCCCC1 [Compound 1-11]	6.4 nM	1150 nM	–
O=C(NC1CCCCC1)c1nc(-c2ccc(Cl)cc2Cl)n(-c2ccc(I)cc2)c1CO [Compound 1-12]	19 nM	22400 nM	–
Cc1c(C(=O)N2CCCCC2)nc(-c2ccc(Cl)cc2Cl)n1-c1ccc(Br)cc1 [Compound 1-13]	22 nM	2450 nM	–
Cc1c(C(=O)NN2CCCCC2)nc(-c2ccc(Cl)cc2Cl)n1-c1ccc(-c2cccnc2)cc1 [Compound 1-14]	39.8 nM	3330 nM	–
O=C(NN1CCCCC1)c1nc(-c2ccc(Cl)cc2Cl)n(-c2ccc(-c3cccnc3)cc2)c1CO [Compound 1-15]	23 nM	2780 nM	–
Cc1c(C(=O)NN2CCCCC2)nc(-c2ccc(Cl)cc2Cl)n1-c1ccc(-c2nnn[nH]2)cc1 [Compound 1-16]	–	10700 nM	Ki (CB1 cannabinoid receptor; Table 6, read-out: CB1 Ki): 404 nM
Cc1c(C(=O)NN2CCCCC2)nc(-c2ccc(Cl)cc2Cl)n1-c1ccc(-c2nnnn2C)cc1 [Compound 1-17]	–	24500 nM	Ki (CB1 cannabinoid receptor; Table 6, read-out: CB1 Ki): 2290 nM
Cc1c(C(=O)NN2CCCCC2)nc(-c2ccc(Cl)cc2Cl)n1-c1ccc(-c2nnn(C)n2)cc1 [Compound 1-18]	6.5 nM	5080 nM	–
O=C(NN1CCCCC1)c1nc(-c2ccc(Cl)cc2Cl)n(-c2ccc(-c3nnn[nH]3)cc2)c1CO [Compound 1-19]	–	22300 nM	Ki (CB1 cannabinoid receptor; Table 6, read-out: CB1 Ki): 5760 nM
Cn1nnnc1-c1ccc(-n2c(-c3ccc(Cl)cc3Cl)nc(C(=O)NN3CCCCC3)c2CO)cc1 [Compound 1-20]	–	12300 nM	Ki (CB1 cannabinoid receptor; Table 6, read-out: CB1 Ki): 400 nM
Cn1nnc(-c2ccc(-n3c(-c4ccc(Cl)cc4Cl)nc(C(=O)NN4CCCCC4)c3CO)cc2)n1 [Compound 1-21]	10.5 nM	539 nM	–
Cc1c(C(=O)N(C)C2CCCCC2)nc(-c2ccc(Cl)cc2Cl)n1-c1ccc(-c2nnn[nH]2)cc1 [Compound 1-22]	–	26300 nM	Ki (CB1 cannabinoid receptor; Table 6, read-out: CB1 Ki): 359 nM

SMILES	Ki (CB1 cannabinoid receptor; CB1 Ki, Table 6)	Ki (CB2 cannabinoid receptor; Table 6, read-out: CB2 Ki)	also measured
Cc1c(C(=O)N(C)C2CCCCC2)nc(-c2ccc(Cl)cc2Cl)n1-c1ccc(-c2nnnn2C)cc1 [Compound 1-23]	982 nM	–	Ki (CB2 cannabinoid receptor; CB2 Ki, Table 6): 4150 nM
Cc1c(C(=O)N(C)C2CCCCC2)nc(-c2ccc(Cl)cc2Cl)n1-c1ccc(-c2nnn(C)n2)cc1 [Compound 1-24]	11.2 nM	220 nM	–
CN(C(=O)c1nc(-c2ccc(Cl)cc2Cl)n(-c2ccc(-c3nnn[nH]3)cc2)c1CO)C1CCCCC1 [Compound 1-25]	–	858 nM	Ki (CB1 cannabinoid receptor; Table 6, read-out: CB1 Ki): 5210 nM
CN(C(=O)c1nc(-c2ccc(Cl)cc2Cl)n(-c2ccc(-c3nnnn3C)cc2)c1CO)C1CCCCC1 [Compound 1-26]	–	1320 nM	Ki (CB1 cannabinoid receptor; Table 6, read-out: CB1 Ki): 101 nM
CN(C(=O)c1nc(-c2ccc(Cl)cc2Cl)n(-c2ccc(-c3nnn(C)n3)cc2)c1CO)C1CCCCC1 [Compound 1-27]	19 nM	620 nM	–
Cc1c(C(=O)NN2CCCCC2)nc(-c2ccc(Cl)cc2Cl)n1-c1ccc(-c2nccs2)cc1 [Compound 1-28]	7.7 nM	656 nM	–
N=C(S)c1ccc(-n2c(-c3ccc(Cl)cc3Cl)nc(C(=O)NN3CCCCC3)c2CO)cc1 [Compound 1-29]	47.6 nM	640 nM	–
O=C(NN1CCCCC1)c1nc(-c2ccc(Cl)cc2Cl)n(-c2ccc(-c3nccs3)cc2)c1CO [Compound 1-30]	23.9 nM	1510 nM	–
Cc1c(C(=O)NN2CCCCC2)nc(-c2ccc(Cl)cc2Cl)n1-c1ccc(C#CCO)cc1 [Compound 1-31]	18 nM	1140 nM	–
Cc1c(C(=O)NN2CCCCC2)nc(-c2ccc(Cl)cc2Cl)n1-c1ccc(C#CCCO)cc1 [Compound 1-32]	6.2 nM	5090 nM	–
Cc1c(C(=O)NN2CCCCC2)nc(-c2ccc(Cl)cc2Cl)n1-c1ccc(C#CCCC#N)cc1 [Compound 1-33]	1.6 nM	271 nM	–
O=C(NN1CCCCC1)c1nc(-c2ccc(Cl)cc2Cl)n(-c2ccc(C#CCO)cc2)c1CO [Compound 1-34]	23.2 nM	–	Ki (CB2 cannabinoid receptor; CB2 Ki, Table 6): 5360 nM
Cc1c(NC(=O)NC2CCCCC2)nc(-c2ccc(Cl)cc2Cl)n1-c1ccc(Br)cc1 [Compound 1-35]	6.9 nM	–	Ki (CB2 cannabinoid receptor; CB2 Ki, Table 6): 20500 nM
Cc1c(NC(=O)NC2CCCCC2)nc(-c2ccc(Cl)cc2Cl)n1-c1ccc(I)cc1 [Compound 1-36]	1.2 nM	7240 nM	–
Cc1c(NC(=O)N(C)C2CCCCC2)nc(-c2ccc(Cl)cc2Cl)n1-c1ccc(Br)cc1 [Compound 1-37]	14.2 nM	1420 nM	–
O=C(Nc1nc(-c2ccc(Cl)cc2Cl)n(-c2ccc(I)cc2)c1CBr)NC1CCCCC1 [Compound 1-38]	5 nM	75.3 nM	–
O=C(Nc1nc(-c2ccc(Cl)cc2Cl)n(-c2ccc(I)cc2)c1CO)NC1CCCCC1 [Compound 1-39]	6.8 nM	1340 nM	–
CN(C(=O)Nc1nc(-c2ccc(Cl)cc2Cl)n(-c2ccc(Br)cc2)c1CO)C1CCCCC1 [Compound 1-40]	10 nM	1020 nM	–
[N-]=[N+]=NCc1c(C(=O)NN2CCCCC2)nc(-c2ccc(Cl)cc2Cl)n1-c1ccc(Br)cc1 [Compound 1-41]	7 nM	954 nM	–
Cc1c(C(=O)NN2CCCCC2)nn(-c2ccc(Cl)cc2Cl)c1-c1ccc(C#CCO)cc1 [Compound 2-1, 1-(2,4-Dichloro-phenyl)-5-[4-(3-hydroxy-prop-1-ynyl)-phenyl]-4-methyl-1H-pyrazole-3-carboxylic acid piperidin-1-ylamide]	–	–	Ki (CB1 cannabinoid receptor; CB1 Ki, Table 7): 33.1 nM; Ki (CB2 cannabinoid receptor; Table 7, read-out: CB2 Ki): 1490 nM
Cc1c(C(=O)NN2CCCCC2)nn(-c2ccc(Cl)cc2Cl)c1-c1ccc(C#CCCO)cc1 [Compound 2-2]	–	–	Ki (CB1 cannabinoid receptor; CB1 Ki, Table 7): 19.7 nM; Ki (CB2 cannabinoid receptor; Table 7, read-out: CB2 Ki): 441 nM
Cc1c(C(=O)NN2CCCCC2)nn(-c2ccc(Cl)cc2Cl)c1-c1ccc(C#CCCC#N)cc1 [Compound 2-3]	–	–	Ki (CB1 cannabinoid receptor; CB1 Ki, Table 7): 0.35 nM; Ki (CB2 cannabinoid receptor; Table 7, read-out: CB2 Ki): 127 nM
